Data reported in US4128666A, “4 AND 5-Halo substituted 2-indanamine compounds” (SmithKline Corporation, priority 1977, dated 1978).

Legend:
[1] = biological target: phenylethanolamine N-methyltransferase; assay: inhibition of phenylethanolamine N-methyltransferase in vitro; format: biochemical; details: for Ki: enzyme inhibition dissociation constant, calculated according to Chou
Experimental: Chem. Path. Pharm. 17:201-213, 1977, at various compound concentrations. From the data received, the enzyme inhibition dissociation constants (Ki values) were calculated according to mathematical procedures described by Chou, Mol. Pharm. 10:235-247, 1974.
The Ki value of a preferred compound of this invention, 4,5-dichloro-2-indanamine, was compared with other closely related compounds.

[2] = tested on: adrenal epinephrine/norepinephrine ratio; assay: in vivo adrenal epinephrine/norepinephrine ratio in mice (PNMT inhibition); details: for E/NE Ratio: male mice, 50 mg/kg p.o. daily dose, seven days, n = 5
Experimental: Male mice were dosed orally with either drug or vehicle control on a twice-a-day basis for seven consecutive days.
On the morning of the next day they were again dosed with two hours later sacrificed by decapitation. The adrenal glands were then removed and analyzed fluorometrically for both epinephrine and norepinephrine content.

[3] = Experiment 1, control 2.6 ± .1, ^b (SK & F 82566) significantly different from control, p <.001

SMILES | Ki [1] | E/NE Ratio [2, 3] | E/NE Ratio ([2]; Experiment 2, control 2.0 ± .05) | potency of inhibition (in words) ([1]; compared with the other compounds of Table I) | lowering of adrenal epinephrine/norepinephrine ratio (in words) ([2]; only this compound, under the conditions of this study)
NC1Cc2ccccc2C1 [SK & F 8851] | 10000 nM | 2.4 | – | – | –
NC1Cc2cc(Cl)c(Cl)cc2C1 [SK & F 50070] | 1000 nM | 2.2 | – | – | –
NC1CCc2c1ccc(Cl)c2Cl (centres unmarked) [SK & F 82520] | 400 nM | – | 1.8 | – | –
NC1Cc2ccc(Cl)c(Cl)c2C1 (centres unmarked) [SK & F 82566, 4,5-dichloro-2-indanamine] | 20 nM | 1.1 | – | much more potent inhibitor than the other compounds | significantly lowered the adrenal epinephrine/norepinephrine ratio
NC1CCc2ccc(Cl)c(Cl)c21 (centres unmarked) [SK & F 82570] | > 1000 nM | – | – | – | –
